Source: the supplement of paper PMC10307832

Columns and labels:
Assay in all cases: relative viability (nuclei count vs DMSO), 5 days (fraction); higher = more cells survive
Venetoclax + Phenformin = compound: CC1(C)CCC(CN2CCN(c3ccc(C(=O)NS(=O)(=O)c4ccc(NCC5CCOCC5)c([N+](=O)[O-])c4)c(Oc4cnc5[nH]ccc5c4)c3)CC2)=C(c2ccc(Cl)cc2)C1 [Venetoclax] + N=C(N)NC(=N)NCCc1ccccc1 [Phenformin] (partner 250 µM)
Procedure, shortened: (§1)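 Each reported value is a median over duplicate plates. It expresses relative viability: treated-well nuclei count divided by vehicle-well nuclei count. Lung cancer cell lines in 1536-well plates were dosed by pin tool a day after seeding, alone with one drug or with a fixed anchor-drug dose plus five library-drug doses (not always all listed) in √10 steps, and nuclei were counted after 5 days.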

Venetoclax + Vorinostat = compound: CC1(C)CCC(CN2CCN(c3ccc(C(=O)NS(=O)(=O)c4ccc(NCC5CCOCC5)c([N+](=O)[O-])c4)c(Oc4cnc5[nH]ccc5c4)c3)CC2)=C(c2ccc(Cl)cc2)C1 [Venetoclax] + O=C(CCCCCCC(=O)Nc1ccccc1)NO [Vorinostat] (partner 1 µM)
Procedure, shortened: as §1

Selumetinib + Lapatinib = compound: Cn1cnc2c(F)c(Nc3ccc(Br)cc3Cl)c(C(=O)NOCCO)cc21 [Selumetinib] + CS(=O)(=O)CCNCc1ccc(-c2ccc3ncnc(Nc4ccc(OCc5cccc(F)c5)c(Cl)c4)c3c2)o1 [Lapatinib] (partner 2 µM)
Procedure, shortened: as §1

Selumetinib + Vorinostat = compound: Cn1cnc2c(F)c(Nc3ccc(Br)cc3Cl)c(C(=O)NOCCO)cc21 [Selumetinib] + O=C(CCCCCCC(=O)Nc1ccccc1)NO [Vorinostat] (partner 1 µM)
Procedure, shortened: as §1

Row | Cell Line | relative viability (Venetoclax + Phenformin; first compound 0.01 µM) | relative viability (Venetoclax + Phenformin; first compound 0.03162 µM) | relative viability (Venetoclax + Phenformin; first compound 0.1 µM) | relative viability (Venetoclax + Phenformin; first compound 0.3162 µM) | relative viability (Venetoclax + Phenformin; first compound 1 µM) | relative viability (Venetoclax + Vorinostat; first compound 0.01 µM) | relative viability (Venetoclax + Vorinostat; first compound 0.03162 µM) | relative viability (Venetoclax + Vorinostat; first compound 0.1 µM) | relative viability (Venetoclax + Vorinostat; first compound 0.3162 µM) | relative viability (Venetoclax + Vorinostat; first compound 1 µM) | relative viability (Selumetinib + Lapatinib; first compound 0.02 µM) | relative viability (Selumetinib + Lapatinib; first compound 0.06325 µM) | relative viability (Selumetinib + Lapatinib; first compound 0.2 µM) | relative viability (Selumetinib + Lapatinib; first compound 0.6325 µM) | relative viability (Selumetinib + Vorinostat; first compound 0.02 µM) | relative viability (Selumetinib + Vorinostat; first compound 0.06325 µM) | relative viability (Selumetinib + Vorinostat; first compound 0.2 µM) | relative viability (Selumetinib + Vorinostat; first compound 0.6325 µM)
1 | NCI-H1355 | 0.436 | 0.474 | 0.467 | 0.468 | 0.412 | 0.626 | 0.618 | 0.625 | 0.692 | 0.577 | 0.959 | 0.785 | 0.693 | 0.558 | 0.561 | 0.529 | 0.488 | 0.382
2 | RERF-LC-KJ | 0.382 | 0.414 | 0.418 | 0.458 | 0.442 | 0.587 | 0.701 | 0.682 | 0.686 | 0.718 | 0.768 | 0.885 | 0.828 | 0.811 | 0.649 | 0.656 | 0.629 | 0.637
3 | NCI-H727 | 0.509 | 0.63 | 0.504 | 0.625 | 0.526 | 1.04 | 1.4 | 1.08 | 1.12 | 1.11 | 0.562 | 0.443 | 0.349 | 0.325 | 1.01 | 0.741 | 0.709 | 0.553
4 | NCI-H1734 | 0.396 | 0.446 | 0.326 | 0.411 | 0.358 | 0.613 | 0.876 | 0.711 | 0.761 | 0.76 | 1.12 | 1.02 | 1.09 | 1.04 | 0.787 | 0.814 | 0.694 | 0.85
5 | NCI-H2126 | 0.528 | 0.56 | 0.513 | 0.582 | 0.51 | 0.848 | 0.798 | 0.687 | 0.774 | 0.699 | 0.714 | 0.671 | 0.7 | 0.667 | 0.727 | 0.664 | 0.595 | 0.583
6 | NCI-H23 | 0.762 | 0.751 | 0.815 | 0.8 | 0.719 | 0.565 | 0.752 | 0.54 | 0.619 | 0.521 | 1.24 | 1.02 | 0.825 | 0.957 | 0.649 | 0.561 | 0.557 | 0.668
7 | EMC-BAC-2 | 0.483 | 0.524 | 0.519 | 0.512 | 0.475 | 0.465 | 0.783 | 0.352 | 0.672 | 0.417 | 0.955 | 0.898 | 0.905 | 0.862 | 0.928 | 0.682 | 0.607 | 0.865
8 | NCI-H2023 | 0.434 | 0.393 | 0.435 | 0.434 | 0.378 | 0.749 | 0.708 | 0.73 | 0.631 | 0.587 | 0.893 | 0.692 | 0.747 | 0.766 | 0.617 | 0.554 | 0.524 | 0.559
9 | NCI-H647 | 0.543 | 0.622 | 0.443 | 0.481 | 0.377 | 0.451 | 0.629 | 0.529 | 0.528 | 0.465 | 0.964 | 0.872 | 0.876 | 0.957 | 0.697 | 0.38 | 0.727 | 0.712
10 | NCI-H661 | 0.298 | 0.278 | 0.291 | 0.28 | 0.262 | 0.741 | 0.804 | 0.692 | 0.893 | 0.722 | 0.449 | 0.466 | 0.427 | 0.351 | 0.882 | 0.772 | 0.75 | 0.799
11 | NCI-H1975 | 0.429 | 0.397 | 0.401 | 0.41 | 0.366 | 0.692 | 0.678 | 0.743 | 0.688 | 0.72 | 0.856 | 0.65 | 0.794 | 0.674 | 0.726 | 0.605 | 0.582 | 0.473
12 | NCI-H1437 | 0.377 | 0.348 | 0.266 | 0.34 | 0.296 | 0.8 | 0.888 | 0.808 | 0.709 | 0.788 | 0.588 | 0.528 | 0.351 | 0.252 | 0.749 | 0.7 | 0.576 | 0.429
13 | NCI-H1666 | 0.546 | 0.605 | 0.531 | 0.582 | 0.56 | 0.997 | 1.05 | 1.07 | 1.02 | 1.07 | 0.506 | 0.286 | 0.351 | 0.477 | 1.02 | 0.902 | 1.06 | 0.86
14 | NCI-H2085 | 0.635 | 0.762 | 0.688 | 0.766 | 0.655 | 0.713 | 0.807 | 0.795 | 0.817 | 0.765 | 0.75 | 0.706 | 0.713 | 0.68 | 0.76 | 0.757 | 0.739 | 0.718
15 | LXF-289 | 0.482 | 0.538 | 0.509 | 0.503 | 0.505 | 0.885 | 0.791 | 0.746 | 0.751 | 0.734 | 0.874 | 0.839 | 0.761 | 0.758 | 0.734 | 0.668 | 0.595 | 0.661
16 | NCI-H322M | 0.781 | 0.793 | 0.763 | 0.886 | 0.803 | 0.982 | 1 | 0.818 | 0.996 | 0.903 | 0.524 | 0.479 | 0.439 | 0.438 | 0.946 | 0.638 | 0.653 | 0.758
17 | LU99A | 0.852 | 0.92 | 0.799 | 0.878 | 0.822 | 0.595 | 0.703 | 0.416 | 0.521 | 0.552 | 1.05 | 1 | 1.02 | 0.963 | 0.521 | 0.472 | 0.476 | 0.501
